For one test, the system named is wild-type HEK293 cells. The experiment in a line: FRET cAMP assay in wild-type HEK293 cells transduced with H188 (negative control). The test is classed as cell-based, human. The conditions noted are these: WT HEK293 lacking recombinant receptors, H188 virus; IBMX at 50 μM. Here is the method:
(§1) HEK293-H188-C24 cells stably expressing H188 were plated at 80% confluence on 96-well clear-bottom assay plates (Costar 3904, Corning, NY) coated with rat tail collagen (Collaborative Biomedical Products, Bedford, MA). HEK293 cells stably expressing select GPCRs were transduced for 16 hours with H188 virus at a density of ca. 60,000 cells/well under conditions in which the multiplicity of infection (m.o.i.) was equivalent to 25 viral particles per cell. For all assays, the culture media was then removed and replaced by 200 μl/well of a standard extracellular saline (SES) solution supplemented with 11 mM glucose and 0.1% BSA[31],[34]–[36]. The composition of the SES was (in mM): 138 NaCl, 5.6 KCl, 2.6 CaCl2, 1.2 MgCl2, 11.1 glucose, and 10 Hepes (295 mOsmol, pH 7.4). Real-time kinetic assays of FRET were performed using a FlexStation 3 microplate reader equipped with monochromators (Molecular Devices, Sunnyvale, CA). Excitation light was delivered at 435/9 nm (455 nm cut-off), and emitted light was detected at 485/15 nm (CFP) or 535/15 nm (YFP)[31],[34]–[36]. The emission intensities were the averages of 12 excitation flashes for each time point per well.
Background: Cyclic AMP is a second messenger, typically raised through Gs and lowered through Gi signalling.

For test [1], the system named is soluble adenylyl cyclase (sAC). The experiment in a line: FRET assay of soluble adenylyl cyclase activity in HEK293-sAC cells transduced with H188. The test is classed as cell-based. The conditions noted are these: IBMX 50 μM, H188 by viral transduction. As to the method:
These actions of Rp-8-Br-cAMPS-pAB were not reproduced by the negative control 4-acetoxybenzy alcohol (4-Abn-OH) that lacks the cAMP moiety (Fig. 3e1,e2)[36].
HEK293-H188-C24 cells stably expressing H188 were plated at 80% confluence on 96-well clear-bottom assay plates (Costar 3904, Corning, NY) coated with rat tail collagen (Collaborative Biomedical Products, Bedford, MA). HEK293 cells stably expressing select GPCRs were transduced for 16 hours with H188 virus at a density of ca. 60,000 cells/well under conditions in which the multiplicity of infection (m.o.i.) was equivalent to 25 viral particles per cell. For all assays, the culture media was then removed and replaced by 200 μl/well of a standard extracellular saline (SES) solution supplemented with 11 mM glucose and 0.1% BSA[31],[34]–[36]. The composition of the SES was (in mM): 138 NaCl, 5.6 KCl, 2.6 CaCl2, 1.2 MgCl2, 11.1 glucose, and 10 Hepes (295 mOsmol, pH 7.4). Real-time kinetic assays of FRET were performed using a FlexStation 3 microplate reader equipped with monochromators (Molecular Devices, Sunnyvale, CA). Excitation light was delivered at 435/9 nm (455 nm cut-off), and emitted light was detected at 485/15 nm (CFP) or 535/15 nm (YFP)[31],[34]–[36]. […] The 485/535 emission ratio was calculated for each well and the mean +/− s.d. values for 12 wells were averaged. […]

The test system of another test is human GLP-1R. The test can be described thus: FRET cAMP assay in HEK293-GLP-1R cells (stable human GLP-1R) virally transduced with H188. The test is classed as cell-based. The note with it: HEK293-GLP-1R cells transduced with H188. As to the method: as §1
Test [2] relates to HEK293-H188-C24 cells (cAMP production). The experiment in a line: High-throughput FRET assay of cAMP, forskolin in HEK293-H188-C24 cells. The test is classed as cell-based. The conditions noted are these: Homo sapiens; HEK293-H188-C24 monolayers, 96-well microplate reader, 485/535 nm FRET ratio; read-out: EC50 of forskolin for H188 ΔFRET (sensitivity). The source says:
(§2) H188 contains the cAMP sensor Epac1 in which the full-length protein is truncated to remove the Disheveled, Egl-10, and Pleckstrin (DEP) membrane-targeting domain so that its expression is confined largely to the cytoplasm (Fig. 2a,b)[30]. T781A and F782A mutations introduced within the CDC25 homology domain disrupt guanine nucleotide exchange factor (GEF) activity so that binding of cAMP to H188 is not linked to downstream signaling events mediated by the Epac1 effector protein Rap1 GTPase (Fig. 2a)[30]. In H188 the Epac1 backbone is flanked by an mTurquoise2Δ FRET donor chromophore at the N-terminus, and tandem cp173 Venus-Venus FRET acceptor chromophores at the C-terminus (Fig. 2a). Binding of cAMP reduces FRET so that when exciting with 440 nm light, there is an increase of 485 nm (mTuquoise2Δ) and a decrease of 535 nm (cp173 Venus-Venus) emission fluorescence. This ΔFRET is measured as an increase of the 485/535 nm FRET ratio.
HEK293-H188-C24 cells stably expressing H188 were plated at 80% confluence on 96-well clear-bottom assay plates (Costar 3904, Corning, NY) coated with rat tail collagen (Collaborative Biomedical Products, Bedford, MA). […] Real-time kinetic assays of FRET were performed using a FlexStation 3 microplate reader equipped with monochromators (Molecular Devices, Sunnyvale, CA). […]

For another test, the system named is rat glucagon receptor. The test can be described thus: FRET cAMP assay in HEK293 cells stably expressing glucagon receptor, transduced with H188. The test is classed as cell-based. The conditions noted are these: Glucagon 3 nM. As to the method:
as §1

The subject of test [3] is H188 (Epac1-based cAMP biosensor). The test can be described thus: FRET response of biosensor H188 to cAMP analogs and Epac inhibitors in HEK293-H188-C24 cells. The test is classed as cell-based.
Text: as §2
HEK293-H188-C24 cells stably expressing H188 were plated at 80% confluence on 96-well clear-bottom assay plates (Costar 3904, Corning, NY) coated with rat tail collagen (Collaborative Biomedical Products, Bedford, MA). HEK293 cells stably expressing select GPCRs were transduced for 16 hours with H188 virus at a density of ca. 60,000 cells/well under conditions in which the multiplicity of infection (m.o.i.) was equivalent to 25 viral particles per cell. For all assays, the culture media was then removed and replaced by 200 μl/well of a standard extracellular saline (SES) solution supplemented with 11 mM glucose and 0.1% BSA[31],[34]–[36]. The composition of the SES was (in mM): 138 NaCl, 5.6 KCl, 2.6 CaCl2, 1.2 MgCl2, 11.1 glucose, and 10 Hepes (295 mOsmol, pH 7.4). Real-time kinetic assays of FRET were performed using a FlexStation 3 microplate reader equipped with monochromators (Molecular Devices, Sunnyvale, CA). Excitation light was delivered at 435/9 nm (455 nm cut-off), and emitted light was detected at 485/15 nm (CFP) or 535/15 nm (YFP)[31],[34]–[36]. The emission intensities were the averages of 12 excitation flashes for each time point per well. Test solutions dissolved in SES were placed in V-bottom 96-well plates (Greiner Bio-One, Monroe, NC), and an automated pipetting procedure was used to transfer 50 μl of each test solution to each well of the assay plate containing monolayers of these cells. The 485/535 emission ratio was calculated for each well and the mean +/− s.d. values for 12 wells were averaged. To facilitate comparisons amongst different experiments, these FRET ratio values were normalized using baseline subtraction so that a y-axis value of 1 corresponds to the initial baseline FRET ratio, whereas a value of 2 corresponds to a doubling of the FRET ratio. The time course of the ΔFRET ratio was plotted after exporting data to Origin 8.0 (OriginLab, Northampton, MA). Origin 8.0 was also used for generation of Hill plots describing dose-response relationships.

The target of the next test is T1, human NPY2R (Homo sapiens, UniProt P49146).
T1 construct: 3xHA (own knowledge: 'TN' in the cDNA Resource Center clone ID denotes an N-terminal 3xHA tag); host or cells: HEK293-H188-C24 (transient transfection, pcDNA3.1)
T1 sequence (P49146 1-381): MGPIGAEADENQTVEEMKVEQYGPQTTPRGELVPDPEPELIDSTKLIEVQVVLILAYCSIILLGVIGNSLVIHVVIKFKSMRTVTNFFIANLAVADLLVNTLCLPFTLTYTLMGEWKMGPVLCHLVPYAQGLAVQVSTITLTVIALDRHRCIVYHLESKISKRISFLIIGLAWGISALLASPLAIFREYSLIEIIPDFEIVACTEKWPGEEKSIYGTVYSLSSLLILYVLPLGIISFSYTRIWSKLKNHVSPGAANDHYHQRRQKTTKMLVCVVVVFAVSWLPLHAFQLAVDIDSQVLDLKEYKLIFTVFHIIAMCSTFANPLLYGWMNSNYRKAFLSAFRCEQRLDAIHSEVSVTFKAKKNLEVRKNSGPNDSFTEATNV
The test can be described thus: FRET assay, inhibition of adenosine-stimulated cAMP production in HEK293-H188-C24 cells transfected with human NPY2R. The test is classed as cell-based. The note with it: BIIE0246 300 nM; adenosine 2 μM. Here is the method:
Transient transfections were performed using Lipofectamine and Plus Reagent (Thermo Fisher) using methodology described previously by our laboratory for HEK293 cells. […] Plasmid encoding human NPY2R (I.D. NPYR20TN00) in pcDNA3.1 was from the University of Missouri-Rolla cDNA Resource Center (Rolla, MO). Individual clones of HEK293 cells stably expressing select FRET reporters were obtained by G418 antibiotic resistance selection, as described previously. Adenovirus for transduction of HEK293 cells with H188 was generated by a commercial vendor (ViraQuest, North Liberty, IA) using the shuttle vector pVQAd CMV K-NpA and the H188 plasmid originally created by Klarenbeek and co-workers[30].
HEK293-H188-C24 cells stably expressing H188 were plated at 80% confluence on 96-well clear-bottom assay plates (Costar 3904, Corning, NY) coated with rat tail collagen (Collaborative Biomedical Products, Bedford, MA). […] Real-time kinetic assays of FRET were performed using a FlexStation 3 microplate reader equipped with monochromators (Molecular Devices, Sunnyvale, CA). Excitation light was delivered at 435/9 nm (455 nm cut-off), and emitted light was detected at 485/15 nm (CFP) or 535/15 nm (YFP)[31],[34]–[36]. […]

In a further test the test system is adenosine A2B receptor. The experiment in a line: FRET cAMP assay, endogenous adenosine A2B receptors in untransfected HEK293-H188-C24 cells. The test is classed as cell-based, human. The conditions noted are these: read-out: Kd for antagonist action versus adenosine; versus 4 μM adenosine. Here is the method:
HEK293 cells stably expressing select GPCRs were transduced for 16 hours with H188 virus at a density of ca. 60,000 cells/well under conditions in which the multiplicity of infection (m.o.i.) was equivalent to 25 viral particles per cell. For all assays, the culture media was then removed and replaced by 200 μl/well of a standard extracellular saline (SES) solution supplemented with 11 mM glucose and 0.1% BSA[31],[34]–[36]. […] Real-time kinetic assays of FRET were performed using a FlexStation 3 microplate reader equipped with monochromators (Molecular Devices, Sunnyvale, CA). […] The emission intensities were the averages of 12 excitation flashes for each time point per well.

What is called EC50 is the concentration giving half of the maximal effect. In general, Kd refers to the free concentration of one partner at which half of the binding sites on the other are occupied at equilibrium, for simple one-to-one binding.

Consider `CC(C)Cn1c(=O)n(C)c(=O)c2[nH]cnc21` [IBMX, isobutylmethylxanthine], for which the “Effect on levels of cAMP in wild-type HEK293 cells” value in the test with wild-type HEK293 cells is given as “failed to raise levels of cAMP”. For the same compound, in test [1], the “Effect on levels of cAMP in HEK293-sAC cells” value is on record as “raised levels of cAMP”. Also, in the test on human GLP-1R, the “Effect on the cAMP-elevating action of GLP-1” value is on record as “potentiated the action of GLP-1”.
As to `C=C[C@@]1(C)CC(=O)[C@]2(O)[C@@]3(C)[C@@H](O)CCC(C)(C)[C@@H]3[C@H](O)[C@H](OC(C)=O)[C@@]2(C)O1` [forskolin], in test [2], the concentration for a half-maximal effect (EC50) was determined as 500 nM.
Turning to `Cl.c1ccc(C2CCCC2NC2=NCCCCCCCCCCC2)cc1` (stereo not shown) [MDL-12,330 A], the “Effect on the cAMP-elevating action of GLP-1” value with human GLP-1R was “suppressed the action of GLP-1”.
With glucagon, the “Effect on cAMP at glucagon receptor, 3 nM” value in the test with rat glucagon receptor was “did raise levels of cAMP”.
For the compound `Cc1ccc(S(=O)(=O)c2c(C)cc(C)cc2C)cc1` [ESI-05], the “Effect on baseline FRET ratio when administered alone” value in test [3] is “unaffected”. Besides, the “Effect on ΔFRET measured in response to 8-pCPT-2′-O-Me-cAMP-AM” value in test [3] (Epac inhibitor co-applied) is “without effect”.
On to `N=C(N)NCCC[C@H](NC(=O)CC1(CC(=O)N2CCN(C3c4ccccc4NC(=O)c4ccccc43)CC2)CCCC1)C(=O)NCCn1c(=O)n(-c2ccccc2)n(-c2ccccc2)c1=O` (stereo partly shown) [BIIE0246], for which the “Effect on inhibitory actions of EP45 (1,000 nM) and PYY(3–36) (300 nM)” value at human NPY2R is “reduced the inhibitory actions”.
For `CCCn1c(=O)c2[nH]c(-c3cnn(Cc4cccc(C(F)(F)F)c4)c3)nc2n(CC)c1=O` [GS6201], in the test with adenosine A2B receptor, the Kd was determined as 163 nM.
